Experimental findings from ChEMBL document CHEMBL1123693, “Amnesia-reversal activity of a series of cyclic imides” (1987) are described below.

Type in all cases: functional
Test [1] has as its system Mus musculus. The experiment in a line: Ability to reverse electroconvulsive shock (ECS) induced amnesia in mice, at a dose of 5 mg/Kg administered perorally.
For test [2], the system named is Mus musculus. The experiment in a line: Reversal of electroconvulsive shock induced amnesia in mice following 20 mg/Kg p.o.
Test [3] deals with Mus musculus. The experiment in a line: Ability to reverse electroconvulsive shock (ECS) induced amnesia in mice, at a dose of 80 mg/Kg administered perorally.
The test system of test [4] is Mus musculus. The test can be described thus: Reversal of electroconvulsive shock induced amnesia in mice following 1 mg/Kg p.o.
Test [5] relates to Mus musculus. The test can be described thus: Ability to reverse electroconvulsive shock (ECS) induced amnesia in mice, at a dose of 10 mg/Kg administered perorally.
Test [6] relates to Mus musculus. The experiment in a line: Reversal of electroconvulsive shock induced amnesia in mice following 100 mg/Kg p.o.
Test [7] concerns Mus musculus. The experiment in a line: Ability to reverse electroconvulsive shock (ECS) induced amnesia in mice, at a dose of 10 mg/kg administered perorally. Particulars: route oral.
In test [8] the test system is Mus musculus. The test can be described thus: Ability to reverse electroconvulsive shock (ECS) induced amnesia in mice, at a dose of 1 mg/Kg administered perorally.
Test [9] deals with Mus musculus. The test can be described thus: Ability to reverse electroconvulsive shock (ECS) induced amnesia in mice, at a dose of 320 mg/Kg administered perorally.
Test [10] has as its system Mus musculus. The experiment in a line: Ability to reverse electroconvulsive shock (ECS) induced amnesia in mice, at a dose of 40 mg/Kg administered perorally.
The subject of test [11] is Mus musculus. The test can be described thus: Ability to reverse electroconvulsive shock (ECS) induced amnesia in mice, at a dose of 160 mg/Kg administered perorally.
Test [12] relates to Mus musculus. The experiment in a line: Ability to reverse electroconvulsive shock (ECS) induced amnesia in mice, at a dose of 2.5 mg/Kg administered perorally.
Test [13] deals with Mus musculus. The experiment in a line: Ability to reverse electroconvulsive shock (ECS) induced amnesia in mice, at a dose of 0.31 mg/Kg administered perorally.
Test [14] relates to Mus musculus. The experiment in a line: Ability to reverse electroconvulsive shock (ECS) induced amnesia in mice, at a dose of 0.63 mg/Kg administered perorally.
Test [15] concerns Mus musculus. The test can be described thus: Ability to reverse electroconvulsive shock (ECS) induced amnesia in mice, at a dose of 1.25 mg/Kg administered perorally.
The subject of test [16] is Mus musculus. The experiment in a line: Ability to reverse electroconvulsive shock (ECS) induced amnesia in mice, at a dose of 0.6 mg/Kg administered perorally.
The test system of test [17] is Mus musculus. The experiment in a line: Ability to reverse electroconvulsive shock (ECS) induced amnesia in mice, at a dose of 100 mg/Kg administered perorally(Exp-1).
The test system of test [18] is Mus musculus. The test can be described thus: Ability to reverse electroconvulsive shock (ECS) induced amnesia in mice, at a dose of 100 mg/Kg administered perorally(Exp-2).
Test [19] relates to Mus musculus. The experiment in a line: Ability to reverse electroconvulsive shock (ECS) induced amnesia in mice, at a dose of 1.0 mg/Kg administered perorally(Exp-1).
Test [20] concerns Mus musculus. The test can be described thus: Ability to reverse electroconvulsive shock (ECS) induced amnesia in mice, at a dose of 1.0 mg/Kg administered perorally(Exp-2).
Test [21] deals with Mus musculus. The test can be described thus: Ability to reverse electroconvulsive shock (ECS) induced amnesia in mice, at a dose of 10 mg/Kg administered perorally(Exp-1).
Test [22] relates to Mus musculus. The test can be described thus: Ability to reverse electroconvulsive shock (ECS) induced amnesia in mice, at a dose of 10 mg/Kg administered perorally(Exp-2).

On to `O=C(O)CCCC1CCCC(=O)N1` (stereo unspecified), for which the values for the Reversal in the test with Mus musculus [1], in the test on Mus musculus [2] and in the test with Mus musculus [3] were 67%, 100% and 0%, respectively.
Consider `O=C(CCC1CCC(=O)N1)NCCc1ccc(O)cc1` (stereo unspecified), for which the figures for the Reversal in the test with Mus musculus [4], in the test on Mus musculus [5] and with Mus musculus [6] were 20%, 0% and 0%, respectively.
For the compound `CCOC(=O)CCC1CCC(=O)N1` (stereo unspecified), the figures for the Reversal in the test with Mus musculus [1], with Mus musculus [2] and in the test on Mus musculus [3] were 10%, 0% and 27%, respectively.
For the compound `O=C(O)CSC1CCC(=O)N1` (stereo unspecified), the Reversal with Mus musculus [7] turned out to be 21%; in the test on Mus musculus [8], 64%; in the test on Mus musculus [6], 31%.
As to `O=C1CCCCC2CCC(=O)N12` (stereo unspecified), the Reversal in the test with Mus musculus [1] was determined as 14%; in the test with Mus musculus [2], 9%; with Mus musculus [3], 36%.
With `O=C1CCC2CCC(=O)N12` [ROLZIRACETAM], the Reversal in the test on Mus musculus [9] worked out at 85%; with Mus musculus [10] it was 92%; in the test on Mus musculus [1], 69%; in the test on Mus musculus [11], 62%; in the test with Mus musculus [12] it was 25%; with Mus musculus [2], 31%. Also, the Reversal was determined as 19% with Mus musculus [13], 73% in the test on Mus musculus [14], 27% in the test on Mus musculus [15] and 63% in the test on Mus musculus [3].
Regarding `COC(=O)CCSC1CCC(=O)N1` (stereo unspecified), the Reversal with Mus musculus [7] was 25%; in the test on Mus musculus [8], 53%; in the test on Mus musculus [6] it was 87%.
For the compound `O=C1CCC(CCC(=O)OCc2ccc(Cl)cc2)N1` (stereo unspecified), the Reversal in the test on Mus musculus [4] came out at 0%; in the test with Mus musculus [5], 25%; in the test on Mus musculus [6] it was 42%.
Take `CC(C)N(CCNC(=O)CCC1CCC(=O)N1)C(C)C` (stereo unspecified): the Reversal was 17% with Mus musculus [1], 33% in the test on Mus musculus [2] and 17% in the test with Mus musculus [3].
In the case of `O=C(O)CCC1CCC(=O)N1` (stereo unspecified), the Reversal in the test with Mus musculus [1] is recorded as 89%; in the test with Mus musculus [12], 91%; in the test on Mus musculus [2] it was 100%; in the test with Mus musculus [16] it was 58%; with Mus musculus [15], 83%; in the test with Mus musculus [3] it was 67%.
Turning to `O=C1CCC(CCCC(=O)OCc2ccccc2)N1` (stereo unspecified), the results for the Reversal in the test on Mus musculus [4], with Mus musculus [5] and with Mus musculus [6] were 70%, 24% and 43%, respectively.
Regarding `O=C(CCC1CCC(=O)N1)Nc1ccncc1` (stereo unspecified), the Reversal with Mus musculus [4] stood at 64%; in the test with Mus musculus [5], 59%; with Mus musculus [6] it was 53%.
With `CC1CC2CC(C)C(=O)N2C1=O` (stereo unspecified), the results for the Reversal in the test on Mus musculus [1], in the test with Mus musculus [2] and in the test with Mus musculus [3] were 0%, 20% and 20%, respectively.
For the compound `O=C1CCSC2CCC(=O)N12` (stereo unspecified), the Reversal with Mus musculus [4] came out at 19%; with Mus musculus [5], 51%; with Mus musculus [6] it was 55%.
As to `O=C(CCC1CCC(=O)N1)NCc1ccccc1` (stereo unspecified), the Reversal in the test on Mus musculus [1] was found to be 0%; in the test with Mus musculus [2], 62%; with Mus musculus [3], 50%.
`O=C1CCC(CCC(=O)OCc2cccc(Cl)c2)N1` (stereo unspecified): the Reversal is 100% with Mus musculus [4], 30% in the test on Mus musculus [5] and 90% in the test with Mus musculus [6].
Consider `O=C1CCC(/C=C/C(=O)OCc2ccccc2)N1` (stereo unspecified), for which the values for the Reversal with Mus musculus [7], with Mus musculus [8] and with Mus musculus [6] were 31%, 0% and 17%, respectively.
For the compound `O=C(O)CCCC1CCC(=O)N1` (stereo unspecified), the Reversal with Mus musculus [4] was found to be 34%; with Mus musculus [5], 50%; in the test with Mus musculus [6], 100%.
For `CCOC(=O)CCSC1CCC(=O)N1` (stereo unspecified), the figures for the Reversal with Mus musculus [7], in the test with Mus musculus [8] and in the test with Mus musculus [6] were 66%, 49% and 44%, respectively.
As to `O=C1CCC2SCC(=O)N12` (stereo unspecified), the Reversal was 31% with Mus musculus [4], 0% with Mus musculus [5] and 0% with Mus musculus [6].
For `COC(=O)CCC1CCC(=O)N1` (stereo unspecified), the Reversal with Mus musculus [1] came out at 75%; with Mus musculus [2], 100%; with Mus musculus [3] it was 75%.
Regarding `O=C(O)CC1CCC(=O)N1` (stereo unspecified), the Reversal was 2% in the test with Mus musculus [4], 0% in the test with Mus musculus [5] and 42% in the test on Mus musculus [6].
`CC(OC(=O)CCC1CCC(=O)N1)c1ccccc1` (stereo unspecified): the Reversal in the test with Mus musculus [4] came out at 13%; with Mus musculus [5], 60%; in the test with Mus musculus [6], 16%.
Consider `Cc1cccc(C)c1NC(=O)CCC1CCC(=O)N1` (stereo unspecified), for which the Reversal in the test with Mus musculus [4] is reported as 49%; in the test with Mus musculus [5] it was 56%; with Mus musculus [6] it was 50%.
Consider `O=C1CCCC2CCC(=O)N12` (stereo unspecified), for which the Reversal in the test with Mus musculus [1] is on record as 29%; in the test on Mus musculus [12] it was 56%; in the test with Mus musculus [2], 50%; in the test with Mus musculus [15], 18%; with Mus musculus [3], 64%.
For `O=C1CCC(CCC(=O)NC23C[C@H]4C[C@@H](C2)C[C@@H](C3)C4)N1` (stereo partly specified), the Reversal was found to be 57% in the test on Mus musculus [4], 40% in the test on Mus musculus [5] and 57% in the test on Mus musculus [6].
`O=C1CCC(CCC(=O)OCc2ccccc2)N1` (stereo unspecified): the Reversal in the test on Mus musculus [1] stood at 64%; in the test with Mus musculus [12] it was 67%; with Mus musculus [2], 64%; in the test with Mus musculus [16], 44%; in the test with Mus musculus [15], 56%; in the test with Mus musculus [3], 71%.
As to `NC(=O)CCC1CCC(=O)N1` (stereo unspecified), the Reversal in the test with Mus musculus [4] stood at 64%; in the test with Mus musculus [5], 33%; with Mus musculus [6] it was 64%.
For `CC12CCC(=O)N1C(=O)CC2`, the Reversal in the test with Mus musculus [1] was 31%; in the test with Mus musculus [2] it was 77%; in the test with Mus musculus [3], 85%.
As to `CC1CC2CCC(=O)N2C1=O` (stereo unspecified), the Reversal in the test on Mus musculus [1] was 50%; in the test on Mus musculus [12] it was 50%; in the test with Mus musculus [2], 0%; in the test on Mus musculus [15], 20%; with Mus musculus [3] it was 30%.
On to `O=C(O)CCC1CCCC(=O)N1` (stereo unspecified), for which the Reversal in the test with Mus musculus [1] was 86%; in the test with Mus musculus [12], 60%; in the test with Mus musculus [2], 70%; with Mus musculus [4], 67%; with Mus musculus [15], 56%; in the test on Mus musculus [3], 8%.
`O=C(O)CCC1CCCCC(=O)N1` (stereo unspecified): the Reversal in the test on Mus musculus [4] was 0%; in the test on Mus musculus [5], 38%; in the test with Mus musculus [6], 67%.
For the compound `O=C1CCC2CCC(O)N12` (stereo unspecified), the Reversal is listed as 27% with Mus musculus [7], 19% in the test on Mus musculus [8] and 17% with Mus musculus [6].
For `O=C1CCC(CCC(=O)OCc2ccccc2Cl)N1` (stereo unspecified), the Reversal in the test with Mus musculus [17] worked out at 70%; with Mus musculus [18], 31%; in the test on Mus musculus [19], 30%; in the test with Mus musculus [20], 15%; in the test on Mus musculus [21] it was 80%; with Mus musculus [22], 85%.
For the compound `O=C1CCCC2CCCC(=O)N12`, the Reversal is 33% in the test with Mus musculus [1], 44% in the test with Mus musculus [2] and 55% in the test on Mus musculus [3].
In the case of `CC(C)OC(=O)CCC1CCC(=O)N1` (stereo unspecified), the values for the Reversal with Mus musculus [2], in the test on Mus musculus [4] and with Mus musculus [6] were 42%, 42% and 16%, respectively.
